Experimental data: PubChem BioAssay (NCI)
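All cell lines were grown in 96-well plates and treated with compound for 48 hours. GI50 = concentration required for 50% inhibition of growth. At the TGI there is no net growth.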

Tests used:
Experiment in all cases: DTP human tumour cell line panel, 48 h
TK-10 renal = system: TK-10 renal
HOP-62 NSCLC = system: HOP-62 NSCLC
HCC-2998 colon = system: HCC-2998 colon
CCRF-CEM leukemia = system: CCRF-CEM leukemia
SN12C renal = system: SN12C renal
SNB-19 CNS = system: SNB-19 CNS
NCI-H23 lung = system: NCI-H23 lung
A549 NSCLC = system: A549 NSCLC
MCF7 breast = system: MCF7 breast
MALME-3M melanoma = system: MALME-3M melanoma
MDA-MB-231 breast = system: MDA-MB-231 breast
NCI-H522 lung = system: NCI-H522 lung
LOX IMVI melanoma = system: LOX IMVI melanoma
T-47D breast = system: T-47D breast
RPMI-8226 leukemia = system: RPMI-8226 leukemia
MDA-MB-435 = system: MDA-MB-435
DU-145 prostate = system: DU-145 prostate
SNB-75 CNS = system: SNB-75 CNS
SK-MEL-28 melanoma = system: SK-MEL-28 melanoma
HOP-92 NSCLC = system: HOP-92 NSCLC
M14 melanoma = system: M14 melanoma
RXF 393 renal = system: RXF 393 renal
ACHN renal = system: ACHN renal
K-562 leukemia = system: K-562 leukemia
786-0 renal = system: 786-0 renal
HL-60(TB) leukemia = system: HL-60(TB) leukemia
SK-MEL-5 melanoma = system: SK-MEL-5 melanoma
OVCAR-8 ovarian = system: OVCAR-8 ovarian
COLO 205 colon = system: COLO 205 colon
U251 CNS = system: U251 CNS
PC-3 prostate = system: PC-3 prostate
OVCAR-4 ovarian = system: OVCAR-4 ovarian
NCI/ADR-RES ovarian = system: NCI/ADR-RES ovarian
BT-549 breast = system: BT-549 breast
SR leukemia = system: SR leukemia
SF-295 CNS = system: SF-295 CNS
SF-268 CNS = system: SF-268 CNS

Q: Which results are given for NC(=O)c1c(NC(=O)c2ccc3c(c2)OCO3)sc2c1CCC(=O)C2?
A: GI50 (TK-10 renal): 3320 nM; TGI (TK-10 renal): > 100000 nM; GI50 (HOP-62 NSCLC): 4110 nM; TGI (HOP-62 NSCLC): > 100000 nM; GI50 (HCC-2998 colon): 3450 nM; TGI (HCC-2998 colon): > 100000 nM; GI50 (CCRF-CEM leukemia): 333 nM; TGI (CCRF-CEM leukemia): 2320 nM; GI50 (SN12C renal): 3030 nM; TGI (SN12C renal): > 100000 nM; GI50 (SNB-19 CNS): 2170 nM; TGI (SNB-19 CNS): > 100000 nM; GI50 (NCI-H23 lung): 1320 nM; TGI (NCI-H23 lung): 5640 nM; GI50 (A549 NSCLC): 3440 nM; TGI (A549 NSCLC): > 100000 nM; GI50 (MCF7 breast): 1960 nM; TGI (MCF7 breast): > 100000 nM; GI50 (MALME-3M melanoma): 2040 nM; TGI (MALME-3M melanoma): 4670 nM; GI50 (MDA-MB-231 breast): 2440 nM; TGI (MDA-MB-231 breast): 6890 nM; GI50 (NCI-H522 lung): 355 nM; TGI (NCI-H522 lung): 2290 nM; GI50 (LOX IMVI melanoma): 1150 nM; TGI (LOX IMVI melanoma): > 100000 nM; GI50 (T-47D breast): 592 nM; TGI (T-47D breast): 3810 nM; GI50 (RPMI-8226 leukemia): 339 nM; TGI (RPMI-8226 leukemia): 1600 nM; GI50 (MDA-MB-435): 3160 nM; TGI (MDA-MB-435): > 100000 nM; GI50 (DU-145 prostate): 4500 nM; TGI (DU-145 prostate): > 100000 nM; GI50 (SNB-75 CNS): 2130 nM; TGI (SNB-75 CNS): 6500 nM; GI50 (SK-MEL-28 melanoma): 3000 nM; TGI (SK-MEL-28 melanoma): > 100000 nM; GI50 (HOP-92 NSCLC): 1650 nM; TGI (HOP-92 NSCLC): 5910 nM; GI50 (M14 melanoma): 590 nM; TGI (M14 melanoma): > 100000 nM; GI50 (RXF 393 renal): 1880 nM; TGI (RXF 393 renal): 5360 nM; GI50 (ACHN renal): 1510 nM; TGI (ACHN renal): 5110 nM; GI50 (K-562 leukemia): 356 nM; TGI (K-562 leukemia): > 100000 nM; GI50 (786-0 renal): 2190 nM; TGI (786-0 renal): > 100000 nM; GI50 (HL-60(TB) leukemia): 554 nM; TGI (HL-60(TB) leukemia): 8280 nM; GI50 (SK-MEL-5 melanoma): 1770 nM; TGI (SK-MEL-5 melanoma): 3170 nM; GI50 (OVCAR-8 ovarian): 1750 nM; TGI (OVCAR-8 ovarian): > 100000 nM; GI50 (COLO 205 colon): 2490 nM; TGI (COLO 205 colon): 7420 nM; GI50 (U251 CNS): 467 nM; TGI (U251 CNS): > 100000 nM; GI50 (PC-3 prostate): 313 nM; TGI (PC-3 prostate): > 100000 nM; GI50 (OVCAR-4 ovarian): 494 nM; TGI (OVCAR-4 ovarian): 1790 nM; GI50 (NCI/ADR-RES ovarian): 2200 nM; TGI (NCI/ADR-RES ovarian): > 100000 nM; GI50 (BT-549 breast): 373 nM; TGI (BT-549 breast): 5570 nM; GI50 (SR leukemia): 372 nM; TGI (SR leukemia): > 100000 nM; GI50 (SF-295 CNS): 2310 nM; TGI (SF-295 CNS): 6710 nM; GI50 (SF-268 CNS): 1880 nM; TGI (SF-268 CNS): > 100000 nM
